From US5693628A, “11-benzaldoxime-estra-diene derivatives, methods for their production and pharmaceuticals containing these compounds” (priority 1994, dated 1997)

Experiments:
[1] = tested on: H4-IIE rat hepatoma cell line (TAT induction); experiment: Antiglucocorticoid effect: inhibition of dexamethasone-induced TAT in rat hepatoma cells; type: cell-based; details: hepatomatous cells of rats; 10^-8 M dexamethasone
Description: FIG. 3. is a graph showing the antiglucocorticoid effect of J 867 (Example 1) in comparison to RU 486. The graph depicts the inhibition of TAT induction in a rat hepatoma cell line (the H4-IIE cell line) which were induced by 10^-8 M dexamethasone. The graph indicates the log molar antagonist concentration in the x-axis versus the maximum TAT induction as a percentage in the y-axis. The results for dexamethasone is shown as dashed lines (- - -), the IC50 is shown in solid line (----), RU 486 is shown as open boxes (.quadrature.), and J 867 is shown with closed boxes (.box-solid.).
FIG. 3 compares the antiglucocorticoid effect of J 867 and RU 486 on hepatomatous cells of rats using the TAT model.
In hepatomatous cells of rats, dexamethasone stimulates the tyrosine amino transferase enzyme (TAT). This effect is inhibited by antiglucocorticoid activity.
Antiglucocorticoid effect of J867 in hepatomatous cells of rats using the TAT model
The cell cultures were treated in DMEM under essentially the same conditions as in Example 14. The cells were spread over 24 well plates for the experiments. Substance was added to the confluent hepatomatous cells in 0.2% (v/v) ethanol for 16 hours. After the cells were carefully harvested using a scraper and a cell extract obtained using ultrasonic waves, TAT was determined according to Diamondstone.

glucocorticoid receptor = biological target: T1, glucocorticoid receptor (Rattus norvegicus, UniProt P06536); experiment: relative molar bonding affinity to glucocorticoid receptor (competitive bonding); type: binding; details: dexamethasone = 100%; thymus cytosol of adrenalectomized rat; 3H-dexamethasone, 20 nM; 18 h, 0-4° C.
T1 construct: thymus cytosol of the adrenalectomized rat; from tissue; host or cells: thymus (cytosol) of adrenalectomized rat
T1 sequence (P06536 1-795): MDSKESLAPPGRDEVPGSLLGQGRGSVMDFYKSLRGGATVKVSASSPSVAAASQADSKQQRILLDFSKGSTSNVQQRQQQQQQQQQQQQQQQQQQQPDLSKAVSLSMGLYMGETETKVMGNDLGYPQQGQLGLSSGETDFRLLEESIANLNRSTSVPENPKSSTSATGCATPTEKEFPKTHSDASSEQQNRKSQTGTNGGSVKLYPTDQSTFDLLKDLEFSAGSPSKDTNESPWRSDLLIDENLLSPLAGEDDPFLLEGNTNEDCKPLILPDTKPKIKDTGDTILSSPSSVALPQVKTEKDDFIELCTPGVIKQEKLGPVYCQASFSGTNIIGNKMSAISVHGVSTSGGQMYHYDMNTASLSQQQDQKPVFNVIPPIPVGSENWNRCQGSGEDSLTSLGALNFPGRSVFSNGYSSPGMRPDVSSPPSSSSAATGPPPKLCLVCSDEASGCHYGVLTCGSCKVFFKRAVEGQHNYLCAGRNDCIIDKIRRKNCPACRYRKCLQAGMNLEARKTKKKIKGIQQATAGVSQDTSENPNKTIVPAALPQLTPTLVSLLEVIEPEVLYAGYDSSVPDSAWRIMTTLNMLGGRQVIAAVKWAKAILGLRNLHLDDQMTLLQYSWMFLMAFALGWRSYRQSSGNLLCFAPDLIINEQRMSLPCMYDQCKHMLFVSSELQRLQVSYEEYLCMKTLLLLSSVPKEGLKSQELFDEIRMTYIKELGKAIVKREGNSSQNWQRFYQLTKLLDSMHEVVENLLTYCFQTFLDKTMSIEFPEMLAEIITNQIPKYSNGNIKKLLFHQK
Description: (§1) Measurement of bonding affinity for receptors
(§2) Receptor bonding affinity was determined by competitive bonding of a specifically binding ^3 H labelled hormone (tracer) and the compound to be tested to receptors in the cytosol from animal target organs. It was tried to obtain receptor saturation and a balanced reaction. The following incubation conditions were selected:
Glucocorticoid receptor: thymus cytosol of the adrenalectomized rat, thymi kept at -30° C., buffer: TED. Tracer: ^3 H-dexamethasone, 20 nM; reference substance: dexamethasone.
(§3) After an incubation period of 18 hours at 0°-4° C., bonded and free steroid was separated by mixing in active carbon/dextrane (1%/0.1%), centrifuging off and measuring the bonded ^3 H activity in the supernatant.
The IC50 for the compound to be tested and for the reference substance were determined from measurements in series of concentrations.

oestrogen receptor = biological target: T2, oestrogen receptor (Oryctolagus cuniculus, UniProt G1SML6); experiment: relative molar bonding affinity to oestrogen receptor (competitive bonding); type: binding; details: estradiol = 100%; uterine cytosol of immature rabbit; 3H-ethinyl estradiol, 3 nM; 18 h, 0-4° C.
T2 construct: uterine cytosol of the immature rabbit; from tissue; host or cells: uterus (cytosol) of immature rabbit
T2 sequence (G1SML6 1-598): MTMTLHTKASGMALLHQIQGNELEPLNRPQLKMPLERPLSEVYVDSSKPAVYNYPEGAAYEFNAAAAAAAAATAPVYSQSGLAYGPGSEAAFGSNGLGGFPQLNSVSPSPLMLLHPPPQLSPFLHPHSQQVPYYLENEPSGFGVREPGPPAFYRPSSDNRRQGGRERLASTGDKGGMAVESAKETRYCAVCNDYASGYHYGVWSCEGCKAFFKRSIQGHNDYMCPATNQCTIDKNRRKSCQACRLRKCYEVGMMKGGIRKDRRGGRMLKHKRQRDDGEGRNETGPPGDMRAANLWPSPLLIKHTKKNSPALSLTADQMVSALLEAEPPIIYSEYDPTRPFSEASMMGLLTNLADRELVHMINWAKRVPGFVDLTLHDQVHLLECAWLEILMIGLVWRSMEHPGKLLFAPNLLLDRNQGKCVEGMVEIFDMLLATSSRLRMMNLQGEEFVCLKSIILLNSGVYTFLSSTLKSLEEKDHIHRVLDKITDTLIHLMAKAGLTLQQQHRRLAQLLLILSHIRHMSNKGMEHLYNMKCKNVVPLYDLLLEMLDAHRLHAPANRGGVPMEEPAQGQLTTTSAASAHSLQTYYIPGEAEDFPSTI
Description: as §1, §2
Oestrogen receptor: uterine cytosol of the immature rabbit, kept at -30° C. in TED buffer with 250 mM of saccharose. Tracer: ^3 H-ethinyl estradiol, 3 nM; reference substance: 17β-estradiol.
as §3
The IC50 for the compound to be tested and for the reference substance were determined from measurements in series of concentrations. The quotient of both values (×100%) is the relative molar bonding affinity.

relative molar bonding affinity (RBA) to glucocorticoid receptor (glucocorticoid receptor): 78% | relative molar bonding affinity (RBA) to oestrogen rec. (oestrogen receptor): < 0.1%
Compound: COC[C@]1(OC)CC[C@H]2[C@@H]3CCC4=CC(=O)CCC4=C3[C@@H](c3ccc(C=NO)cc3)C[C@@]21C [Example 1, 11β-[4-(hydroximinomethyl)phenyl]-17β-methoxy-17α-methoxymethyl-estra-4,9-diene-3-on]
antiglucocorticoid effect (TAT) compared with RU 486 [1]: clearly weaker antiglucocorticoid effect than RU 486
